From the supplement of paper PMC13380429

What was measured:
Conditions in all cases: 72 h
U2OS [1] = assay: cell viability relative to DMSO; higher = less toxic
Caco-2 [2] = assay: as above
HepG2 [3] = assay: as above
Calu-3 [4] = assay: as above
Vero E6 [5] = assay: as above
U2OS [6] = assay: drug sensitivity score (DSS) for viability; higher = more toxic; extreme values may be limits of the assay
Caco-2 [7] = assay: as above
HepG2 [8] = assay: as above
Calu-3 [9] = assay: as above
Vero E6 [10] = assay: as above
U2OS [11] = assay: relative viability EC50 (midpoint between 100% and the lowest measured viability); higher = less toxic
Caco-2 [12] = assay: as above
HepG2 [13] = assay: as above
Calu-3 [14] = assay: as above
Vero E6 [15] = assay: as above

Row | Compound | cell viability (U2OS [1]; 1 nM) | cell viability (U2OS [1]; 10 nM) | cell viability (U2OS [1]; 100 nM) | cell viability (U2OS [1]; 1000 nM) | cell viability (U2OS [1]; 10000 nM) | cell viability (Caco-2 [2]; 1 nM) | cell viability (Caco-2 [2]; 10 nM) | cell viability (Caco-2 [2]; 100 nM) | cell viability (Caco-2 [2]; 1000 nM) | cell viability (Caco-2 [2]; 10000 nM) | cell viability (HepG2 [3]; 1 nM) | cell viability (HepG2 [3]; 10 nM) | cell viability (HepG2 [3]; 100 nM) | cell viability (HepG2 [3]; 1000 nM) | cell viability (HepG2 [3]; 10000 nM) | cell viability (Calu-3 [4]; 1 nM) | cell viability (Calu-3 [4]; 10 nM) | cell viability (Calu-3 [4]; 100 nM) | cell viability (Calu-3 [4]; 1000 nM) | cell viability (Calu-3 [4]; 10000 nM) | cell viability (Vero E6 [5]; 1 nM) | cell viability (Vero E6 [5]; 10 nM) | cell viability (Vero E6 [5]; 100 nM) | cell viability (Vero E6 [5]; 1000 nM) | cell viability (Vero E6 [5]; 10000 nM) | drug sensitivity score (U2OS [6]) | drug sensitivity score (Caco-2 [7]) | drug sensitivity score (HepG2 [8]) | drug sensitivity score (Calu-3 [9]) | drug sensitivity score (Vero E6 [10]) | relative viability EC50 (U2OS [11]) | relative viability EC50 (Caco-2 [12]) | relative viability EC50 (HepG2 [13]) | relative viability EC50 (Calu-3 [14]) | relative viability EC50 (Vero E6 [15])
1 | C=CC[C@@H]1/C=C(\C)C[C@H](C)C[C@H](OC)[C@H]2O[C@@](O)(C(=O)C(=O)N3CCCC[C@H]3C(=O)O[C@H](/C(C)=C/[C@@H]3CC[C@@H](O)[C@H](OC)C3)[C@H](C)[C@@H](O)CC1=O)[C@H](C)C[C@@H]2OC [tacrolimus] | 96.9% | 102% | 98.7% | 104% | 98% | 99.8% | 101% | 88.8% | 103% | 93.8% | 108% | 99.6% | 103% | 98.2% | 104% | 99.1% | 103% | 96.6% | 100% | 107% | 96.3% | 91.6% | 88.5% | 90.3% | 108% | 0 | 0 | 0 | 0 | 0 | > 10 µM | > 10 µM | > 10 µM | > 10 µM | > 10 µM
2 | CN(C(=O)c1ccc(F)cc1C(F)(F)F)C1CCN(c2nnc(-c3ccnn3C)c3ccccc23)CC1 [taladegib] | 94.9% | 101% | 93% | 101% | 95.6% | 96.9% | 92.2% | 87.7% | 106% | 92.8% | 120% | 113% | 111% | 93.5% | 93.2% | 93.1% | 93.7% | 92.8% | 109% | 99.4% | 106% | 99.5% | 102% | 90.9% | 91.4% | 0 | 0 | 0 | 0 | 0 | > 10 µM | > 10 µM | > 10 µM | > 10 µM | > 10 µM
3 | Cn1c(C#N)ccc1-c1ccc2c(c1)C(C)(C)OC(=S)N2 [tanaproget] | 102% | 103% | 102% | 103% | 94.9% | 98% | 101% | 100% | 94.8% | 75.4% | 106% | 109% | 95.8% | 87% | 24.7% | 105% | 106% | 101% | 108% | 88.9% | 102% | 103% | 98.2% | 105% | 107% | 0 | 1.7 | 6.3 | 0 | 0 | > 10 µM | > 10 µM | 1.86 µM | > 10 µM | > 10 µM
4 | O=C1c2c(O)cc(O)cc2O[C@H](c2ccc(O)c(O)c2)[C@H]1O [taxifolin] | 95.2% | 96.5% | 92.9% | 96.2% | 89.9% | 91.5% | 106% | 105% | 104% | 96% | 101% | 94.4% | 98.5% | 100% | 97.5% | 101% | 110% | 90.1% | 102% | 99.5% | 94.4% | 99.4% | 94.2% | 97.6% | 104% | 0 | 0 | 0 | 0 | 0 | > 10 µM | > 10 µM | > 10 µM | > 10 µM | > 10 µM
5 | CCN(c1cc(-c2ccc(CN3CCOCC3)cc2)cc(C(=O)NCc2c(C)cc(C)[nH]c2=O)c1C)C1CCOCC1 [tazemetostat] | 97.7% | 96.9% | 101% | 102% | 93.8% | 91.9% | 101% | 98.9% | 101% | 92.6% | 86.1% | 97% | 90.3% | 96.9% | 95.3% | 91.2% | 103% | 98.3% | 98% | 104% | 96.2% | 97.7% | 95.2% | 98.9% | 98.9% | 0 | 0 | 0 | 0 | 0 | > 10 µM | > 10 µM | > 10 µM | > 10 µM | > 10 µM
6 | O=C1C(O)=C(O)C(=O)C(O)=C1O [tetroquinone] | 99.9% | 99.5% | 97.8% | 99.8% | 104% | 103% | 99.6% | 96.9% | 104% | 97.6% | 97.9% | 100% | 101% | 106% | 91.7% | 97.3% | 98.2% | 98.1% | 87.1% | 93.3% | 98.3% | 100% | 97.6% | 96.7% | 95.1% | 0 | 0 | 0 | 0 | 0 | > 10 µM | > 10 µM | > 10 µM | > 10 µM | > 10 µM
7 | CSc1ccccc1OCC(O)CNC(C)C (stereo not given) [tiprenolol] | 97.9% | 96.2% | 106% | 101% | 99.3% | 108% | 102% | 93.6% | 83% | 113% | 98.6% | 92.6% | 102% | 99.9% | 98.5% | 104% | 106% | 100% | 97.3% | 103% | 100% | 98.5% | 98.6% | 91.8% | 86.7% | 0 | 0 | 0 | 0 | 0.3 | > 10 µM | > 10 µM | > 10 µM | > 10 µM | > 10 µM
8 | C#Cc1cnc2nc(O)n(C(CC)CC)c2n1 [tirasemtiv] | 103% | 100% | 101% | 98.6% | 98.5% | 90.7% | 92.8% | 103% | 107% | 103% | 102% | 113% | 99.4% | 115% | 98.5% | 95.8% | 98.7% | 103% | 95.7% | 106% | 94.8% | 101% | 93.4% | 96.9% | 106% | 0 | 0 | 0 | 0 | 0 | > 10 µM | > 10 µM | > 10 µM | > 10 µM | > 10 µM
9 | CCc1ccc(Cc2ccc3c(c2)[C@]2(OC3)O[C@H](CO)[C@@H](O)[C@H](O)[C@H]2O)cc1 [tofogliflozin] | 97.9% | 96.9% | 97.5% | 98% | 95.5% | 97.8% | 98.5% | 86.1% | 97% | 90.5% | 106% | 94.3% | 102% | 105% | 95.5% | 90.9% | 92.7% | 108% | 103% | 108% | 93.9% | 95.6% | 99.4% | 94.6% | 98.4% | 0 | 0 | 0 | 0 | 0 | > 10 µM | > 10 µM | > 10 µM | > 10 µM | > 10 µM
10 | CCCCC/C=C\C=C\CCCCCCCCC(=O)O [trans-10,cis-12-conjugated-linoleic-acid] | 97.8% | 96.8% | 103% | 97.4% | 102% | 94.9% | 101% | 96.6% | 101% | 99.6% | 107% | 92% | 90.8% | 101% | 100% | 102% | 96.1% | 100% | 96.2% | 101% | 109% | 108% | 102% | 102% | 99.1% | 0 | 0 | 0 | 0 | 0 | > 10 µM | > 10 µM | > 10 µM | > 10 µM | > 10 µM
11 | CCOC1O[C@H]([C@@H](COCc2ccccc2)OCc2ccccc2)[C@H](OCc2ccccc2)[C@H]1O (stereo not given in full) [tribenoside] | 93.9% | 96.3% | 101% | 97.3% | 98% | 93% | 96.2% | 90.3% | 95.6% | 94% | 91.4% | 104% | 93.6% | 92.6% | 94.2% | 93.5% | 94.6% | 102% | 105% | 106% | 91.6% | 94.8% | 91.6% | 93.7% | 111% | 0 | 0 | 0 | 0 | 0 | > 10 µM | > 10 µM | > 10 µM | > 10 µM | > 10 µM
12 | Cc1c(C)c2c(c(C)c1O)CCC(C)(C(=O)O)O2 (stereo not given) [trolox] | 104% | 95.6% | 105% | 97% | 103% | 106% | 103% | 88.5% | 93.3% | 90.9% | 96.8% | 90.2% | 92.6% | 87.6% | 98.8% | 105% | 105% | 98.1% | 106% | 104% | 94.7% | 105% | 102% | 95.9% | 77.9% | 0 | 0.8 | 0 | 0 | 1.3 | > 10 µM | > 10 µM | > 10 µM | > 10 µM | > 10 µM
13 | NC(CO)(CO)CO [trometamol] | 93.3% | 96.6% | 98.8% | 101% | 107% | 93.4% | 102% | 111% | 112% | 97.3% | 101% | 93.7% | 106% | 86% | 100% | 92.4% | 117% | 103% | 101% | 108% | 102% | 98.6% | 106% | 86.4% | 95.4% | 0 | 0 | 0 | 0 | 0 | > 10 µM | > 10 µM | > 10 µM | > 10 µM | > 10 µM
14 | O=P(O)(O)C(O)(Cn1ccnc1)P(=O)(O)O [zoledronic-acid] | 96.5% | 96.2% | 100% | 99.3% | 97.2% | 98.2% | 95.1% | 96.8% | 93.2% | 91.6% | 101% | 98.7% | 95.2% | 97.7% | 94.1% | 110% | 100% | 91.9% | 93.4% | 97.7% | 99.7% | 104% | 100% | 98.9% | 99.3% | 0 | 0 | 0 | 0 | 0 | > 10 µM | > 10 µM | > 10 µM | > 10 µM | > 10 µM
